From PMC10609854 (Pharmaceuticals, 2023)

Tests used:
[1] = biological target: T1, human sigma 2 receptor (Homo sapiens, UniProt Q5BJF2); assay: radioligand binding, human sigma 2 receptor ([3H]DTG, Jurkat cells); settings: [3H]DTG with unlabeled (+)-pentazocine
T1 construct: host or cells: Jurkat cells

[2] = in vivo; settings: mouse
Protocol: The compound was administered at a dose of 5 mg/kg i.v. and at two doses (5 and 15 mg/kg) i.p. Before the dose (time 0) and up to 8 h at different time points following compound administration, three to five mice per time point were exsanguinated while under light ketamine/xylazine anesthesia. Blood and brains were harvested to the last measured point, whereas liver, kidneys, and lungs were collected at 0.25, 0.5, and 1 h. Serum and tissues were stored at −80 °C until assayed.
Tissues (liver, kidney, brain, and lung) were homogenized with water in a 1:5 ratio (w/v). Prior to the extraction, 100 μL of the plasma samples or 500 μL of tissue homogenates containing calibrators or authentic samples were spiked with 10 μL of IS working solution in a snap-cap microcentrifuge tubes and vortexed (Reax top, Heidolph, Schwabach, Germany) for 15 s. The serum and tissue samples were then alkalized with, respectively, 20 μL or 50 μL of 4 M sodium hydroxide solution, mixed briefly on the vortex mixer, and extracted with 1 mL of ethyl acetate/hexane (30:70, v/v) mixture by mixing for 20 min on a shaker (VXR Vibrax, IKA, Staufen, Germany). Then samples were centrifuged (EBA 12 R, Hettich, Germany) at 8000 g for 15 min and the organic layer of each sample was transferred to a new snap-cap microcentrifuge tube containing 200 μL of a methanol/0.1 M sulfuric acid mixture (1:9, v/v). Subsequently the samples were vortexed (20 min) and centrifuged again (8000 g, 15 min). Finally, the organic layer was discarded and 10–50 μL of the acidic layer was transferred to the autosampler vials (4 °C).
The HPLC system (LaChrom Elite, Merck Hitachi) consisted of the following components: an L-2130 pump, an L-2200 autosampler with a 100 μL sample loop, an L-2350 oven, and an L-2485 fluorescence detector. Excitation and emission wavelengths were set to 260 nm and 330 nm, respectively. Analysis was performed at a temperature of 25 °C on a 250 mm × 4 mm LiChrospher 100 RP-18 column from Merck Millipore (Germany), filled with 5 μm particles, protected with LiChroCART precolumn (10 μm particle size). The mobile phase containing acetonitrile and 20 mM potassium dihydrogen phosphate buffer (pH 4.5) in a 7:3 (v/v) ratio was filtered through the 0.45 µm membrane filter (Supelco Inc., Mainz, Germany) before use and pumped at a flow rate of 1.5 mL/min. […] The method was validated for serum, brain, liver kidney, and lungs.
Both one- and two-compartment pharmacokinetic models were tested. Bioavailability was estimated as a model parameter (F). […] The maximum concentration (Cmax) and the time to reach peak concentration (tmax) were obtained directly from the concentration–time data. The terminal elimination rate constant (λz) was assessed using linear regression. Terminal half-life (t0.5λz) was calculated as ln2/λz. The area under the concentration–time curve from 0 to last measured point (AUC0–last) was calculated using the linear trapezoidal rule. Non-compartmental and model-dependent analyses were performed using Phoenix WinNonlin version 6.3 (Pharsight Corp., Mountain View, CA, USA). The final pharmacokinetic model was selected on the basis of visual inspection of the fitting, examination of residuals, parameter precision, Akaike Information Criteria, and Schwarz Criteria.

[3] = system: spontaneous locomotor activity; assay: spontaneous locomotor activity; type: in vivo; settings: mice
Protocol: The mean number of light-beam crossings in the vehicle-treated animals was 1.51 ± 0.13 x 103, measured during the 30 min-long period of observation. The test compound at a dose of 30 mg/kg […]
effect [F(2,21) = 4.43, p < 0.05] (Figure S1).
Figure S1. […] The test compound or vehicle (1% solution of Tween 80) were administered 30 min intraperitoneally (i.p.) before the beginning of the test. The results are presented as bar plots showing the mean ± SEM. Statistical analysis: one-way ANOVA followed by Dunnett’s post hoc test, * p < 0.05, n = 8 mice per group.
time spent on the rotarod apparatus was 60 seconds for each control mouse. The same effect was observed in the E153- treated mice. […]
impaired the motor coordination of mice at any tested speed [F(2,15) = 0.41, p=0.67] (Figure S2). We

[4] = system: histamine-induced pruritus; assay: histamine-induced pruritus; type: in vivo; settings: mice
Protocol: The area (around 2 cm^2) of the nape of mice was shaved at least 2 days prior to experiments. On the day of the experiment, each mouse was individually placed in plastic chambers (15 × 15 × 30 cm). After the 30 min period of habituation, the mice received an intradermal (i.d.) injection of histamine dihydrochloride (10 µmol/site), chloroquine (CQ, 200 µg/site), or SLIGRL-NH2 (40 nmol/site), which were dissolved in physiological saline and administrated at the constant volume of 20 μL. Immediately following the injection, scratching (series of movements considered as a single scratching bout usually consisted of three single scratches) of the injected site by the hind paw was counted for 60 min, 30 min, or 45 min after histamine, CQ, and SLIGRL-NH2 injection, respectively.

[5] = system: carrageenan-induced mechanical hyperalgesia; assay: carrageenan-induced mechanical hyperalgesia (Randall-Selitto); type: in vivo; settings: rats, 3 h after carrageenan, vehicle 87.8%
Protocol: The acute, local inflammation and paw edema was induced by subplantar injection of 0.1 mL of 1% carrageenan (made in PBS) into the rat right hind paw. The paw volume was measured using the dislocation of the water column of the plethysmometer (Plethysmometr 7140, Ugo Basile) before and at 1, 2, and 3 h after subplantar injection of carrageenan.
Furthermore, to assess the heightened sensitivity to mechanical stimuli, we employed the pain pressure threshold test. This involved applying increasing pressure to the dorsal surface of the right hind paw using an automated gauge (Analgesy Meter 37215, Ugo Basile, Gemonio, Italy), following the method outlined by Randall and Selitto. The force’s intensity, measured in grams, was recorded when the paw was withdrawn (withdrawal threshold). For each animal, withdrawal thresholds were recorded both prior to the administration of carrageenan and three hours afterward. The results were expressed as a percentage of the initial reaction, with the nociceptive response before carrageenan administration considered as the baseline (100% response).

[6] = biological target: human histamine H4 receptor; settings: read-out: Ki, human histamine H4 receptor; cited from earlier work

T1 sequence (Q5BJF2 whole entry): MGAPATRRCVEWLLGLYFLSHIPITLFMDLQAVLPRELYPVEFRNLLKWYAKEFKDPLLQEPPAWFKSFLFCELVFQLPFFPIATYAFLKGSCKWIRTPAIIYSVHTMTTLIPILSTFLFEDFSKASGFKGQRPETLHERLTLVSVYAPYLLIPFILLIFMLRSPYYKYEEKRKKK

In the case of O=C(O)C(=O)O.c1ccc(-c2ccc(OCCCCCN3CCCCCC3)cc2)cc1 [Compound E153, 1-(5-(4-Phenylphenoxy)pentyl)azepane hydrogen oxalate], the inhibition at 1 µM [1] is reported as 102%, the “Vc (volume of the central compartment)” value [2] is reported as 6.39 L/kg and the half-life [2] is reported as 41.6 min. For the same compound, the “k12 (first-order distribution rate constant)” value [2] was 0.33 h⁻¹, the “k21 (first-order distribution rate constant)” value [2] was 0.19 h⁻¹ and the k el [2] was 0.000278 s⁻¹. The “time of high (peak) concentrations in brain tissue” value [2] was 0.5 to 1 h, the “k01 (first-order absorption rate constant, ka)” value ([2]; ip) was 2.32 h⁻¹ and the Kp ([2]; ip, 5 mg/kg) was 28.5. The “brain t0.5λz” value ([2]; ip, 5 mg/kg) was 1.03 h, the Kp ([2]; ip, 15 mg/kg) was 14.7 and the “brain Cmax” value ([2]; ip, 15 mg/kg) was 11,682.69 ng/g. For the same compound, the “brain t0.5λz” value ([2]; ip, 15 mg/kg) was 1.46 h, the Kp ([2]; iv, 5 mg/kg) was 15.7 and the Tmax ([2]; iv, 5 mg/kg) was 15 min. The “brain t0.5λz” value ([2]; iv, 5 mg/kg) was 0.90 h, the “highest concentration in liver” value ([2]; iv, 5 mg/kg) was 5.32 µg/g and the “highest concentration in lung tissue” value ([2]; iv, 5 mg/kg) was 43.13 µg/g. The “spontaneous locomotor activity (light-beam crossings, 30 min)” value ([3]; 15 mg/kg i.p.) was “no effect”, the “spontaneous locomotor activity (light-beam crossings, 30 min)” value ([3]; 30 mg/kg i.p.) was “significantly altered” and the “activity in histamine-induced pruritus” value ([4]; 5 mg/kg i.p.) was “active”. For the same compound, the “scratching behavior, histamine-induced pruritus” value ([4]; i.p. 30 min before i.d. histamine) was “significantly reduced scratching behavior”, the “mechanical pain threshold, % of baseline” value ([5]; 15 mg/kg) was 112.5% and the “mechanical pain threshold, % of baseline” value ([5]; 30 mg/kg) was 111.8%. The Ki [6] was 22 µM.
